Key:
KRas G12D = KRas G12D (Homo sapiens, UniProt P01116, G12D); assay: biochemical;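 note: TR-FRET displacement binding assay on KRas, read after a one-hour incubation at room temperature, IC50 fitted from percent-of-control values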
Protocol: (§1) The ability of a compound to bind to KRas was measured using a TR-FRET displacement assay. […] After a 60-minute incubation at room temperature, the reaction was measured using a BMG LABTECH CLARIO star Plus via TR-FRET. […] The POC values were fit to a 4-parameter IC50 equation and the IC50 value reported.

KRas G12V = KRas G12V (Homo sapiens, UniProt P01116, G12V); assay: biochemical;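 note: KRas binding measured by TR-FRET displacement at room temperature, IC50 fitted from percent of control values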
Protocol: as §1

KRas G12R = KRas G12R (Homo sapiens, UniProt P01116, G12R); assay: biochemical;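 note: TR-FRET displacement assay of compound binding to KRas, read after one hour at room temperature, potency from a four-parameter fit of percent-of-control values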
Sequence of KRas G12R (P01116 1-169 isoform P01116-2 G12R): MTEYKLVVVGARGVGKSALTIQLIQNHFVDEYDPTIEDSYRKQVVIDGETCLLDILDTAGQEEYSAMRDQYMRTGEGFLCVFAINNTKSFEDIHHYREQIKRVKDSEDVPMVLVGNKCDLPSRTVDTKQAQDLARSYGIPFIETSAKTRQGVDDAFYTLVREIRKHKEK
Protocol: as §1

KRas G12C = KRas G12C (Homo sapiens, UniProt P01116, G12C); assay: biochemical;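 note: binding to KRas assessed by TR-FRET displacement after one hour incubation at room temperature, potency fitted from percent-of-control values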
Sequence of KRas G12C (P01116 1-169 isoform P01116-2 G12C): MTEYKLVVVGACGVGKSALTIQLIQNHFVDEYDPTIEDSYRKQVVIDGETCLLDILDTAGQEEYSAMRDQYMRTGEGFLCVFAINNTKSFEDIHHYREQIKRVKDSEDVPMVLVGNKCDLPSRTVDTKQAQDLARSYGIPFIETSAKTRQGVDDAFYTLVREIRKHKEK
Protocol: as §1

pERK in ASPC1 cells = assay: Inhibition of KRas phosphorylation of ERK (Cisbio HTRF pERK assay); settings: Homo sapiens, ASPC1, read-out: Inhibition (HTRF IC50) of KRas-mediated Phosphorylation of ERK, AsPC-1
pERK in H727 cells = assay: as above; settings: Homo sapiens, NCI-H727, read-out: Inhibition (HTRF IC50) of KRas-mediated Phosphorylation of ERK, H727
KRas G12A = KRas G12A (Homo sapiens, UniProt P01116, G12A); assay: biochemical;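 note: binding to KRas measured by TR-FRET displacement after one hour at room temperature, IC50 from a four-parameter fit of percent-of-control values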
Sequence of KRas G12A (P01116 1-169 isoform P01116-2 G12A): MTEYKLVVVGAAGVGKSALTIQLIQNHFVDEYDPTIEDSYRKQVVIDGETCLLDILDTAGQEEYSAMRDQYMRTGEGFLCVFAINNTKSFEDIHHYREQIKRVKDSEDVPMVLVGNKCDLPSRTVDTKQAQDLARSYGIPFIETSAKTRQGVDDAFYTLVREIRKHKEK
Protocol: as §1

KRas G12S = KRas G12S (Homo sapiens, UniProt P01116, G12S); assay: biochemical;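 note: TR-FRET displacement binding to KRas, read after one hour incubation at room temperature, IC50 from four-parameter fit of percent of control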
Sequence of KRas G12S (P01116 1-169 isoform P01116-2 G12S): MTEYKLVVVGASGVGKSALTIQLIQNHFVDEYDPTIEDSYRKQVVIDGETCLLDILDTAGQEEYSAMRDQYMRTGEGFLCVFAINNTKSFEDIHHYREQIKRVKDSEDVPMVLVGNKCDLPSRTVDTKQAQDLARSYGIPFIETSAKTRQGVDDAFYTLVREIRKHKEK
Protocol: as §1

KRas WT = KRas WT (Homo sapiens, UniProt P01116); assay: biochemical;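 note: binding to KRas read as TR-FRET displacement after a one-hour room-temperature incubation, IC50 derived from percent-of-control values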
Sequence of KRas WT (P01116 1-169 isoform P01116-2): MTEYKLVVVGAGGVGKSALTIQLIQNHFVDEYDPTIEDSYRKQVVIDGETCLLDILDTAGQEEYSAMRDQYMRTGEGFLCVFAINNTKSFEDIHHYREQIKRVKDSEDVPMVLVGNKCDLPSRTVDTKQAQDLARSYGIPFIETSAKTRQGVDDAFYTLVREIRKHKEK
Protocol: as §1

Sequence of KRas G12V (P01116 1-169 isoform P01116-2 G12V): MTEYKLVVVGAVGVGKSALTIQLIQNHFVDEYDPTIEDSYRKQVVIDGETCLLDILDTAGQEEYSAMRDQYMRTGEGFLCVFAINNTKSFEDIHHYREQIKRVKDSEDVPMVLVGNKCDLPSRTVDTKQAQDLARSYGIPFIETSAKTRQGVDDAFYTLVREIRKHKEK
Sequence of KRas G12D (P01116 1-169 isoform P01116-2 G12D): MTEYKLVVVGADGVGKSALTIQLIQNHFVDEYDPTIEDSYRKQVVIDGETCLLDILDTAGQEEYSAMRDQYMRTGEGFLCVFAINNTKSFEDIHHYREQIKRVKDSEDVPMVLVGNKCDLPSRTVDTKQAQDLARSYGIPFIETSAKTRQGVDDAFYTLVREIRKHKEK

IC50 (KRas G12D) [nM] | IC50 (KRas G12V) [nM] | IC50 (KRas G12R) [nM] | IC50 (KRas G12C) [nM] | IC50 (pERK in ASPC1 cells) [nM] | IC50 (pERK in H727 cells) [nM] | IC50 (KRas G12A) [nM] | IC50 (KRas G12S) [nM] | IC50 (KRas WT) [nM] | SMILES
433 | 633 | 1310 | 679 | ≥ 10000 | ≥ 10000 |  |  |  | Cc1cc2[nH]ncc2c(-c2ncc3c(N4CCCC(C)(O)C4)nc(OCC45CCCN4CCC5)nc3c2F)c1C (centres unmarked) [Example 25, 1-(7-(5,6-dimethyl-1H-indazol-4-yl)-8-fluoro-2-((hexahydro-1H-pyrrolizin-7a-yl)methoxy)pyrido[4,3-d]pyrimidin-4-yl)-3-methylpiperidin-3-ol]
845 | 1260 | 2320 |  | ≥ 10000 | ≥ 10000 |  |  |  | Cc1cc2[nH]ncc2c(-c2ncc3c(N4CCCC5(CNC(=O)C5)C4)nc(OCC45CCCN4CCC5)nc3c2F)c1C (centres unmarked) [Example 26, 7-(7-(5,6-dimethyl-1H-indazol-4-yl)-8-fluoro-2-((hexahydro-1H-pyrrolizin-7a-yl)methoxy)pyrido[4,3-d]pyrimidin-4-yl)-2,7-diazaspiro[4.5]decan-3-one]
406 | 355 | 503 | 348 |  |  | 347 | 341 | 475 | O=C1CC2(CCCN(c3nc(OCC45CCCN4CCC5)nc4c(F)c(-c5cccc6cccc(CCF)c56)ncc34)C2)N1 (centres unmarked) [Example 470, 6-(8-fluoro-7-(8-(2-fluoroethyl)naphthalen-1-yl)-2-((hexahydro-1H-pyrrolizin-7a-yl)methoxy)pyrido[4,3-d]pyrimidin-4-yl)-1,6-diazaspiro[3.5]nonan-2-one]
309 | 427 | 1070 | 459 |  |  | 332 | 391 | 362 | Cc1cc2[nH]ncc2c(-c2ncc3c(N4CCCC(C)(O)C4)nc(OC[C@@]45CCCN4C[C@H](F)C5)nc3c2F)c1C (some centres unmarked) [Example 471]
≤ 2 | ≤ 2 | ≤ 2 |  | ≥ 10000 | 9210 |  |  |  | O=C1CC2(CCCN(c3nc(OCC45CCCN4CCC5)nc4c(F)c(-c5cc(O)cc(Cl)c5C5CC5)ncc34)C2)N1 (centres unmarked) [Example 518, 6-(7-(3-chloro-2-cyclopropyl-5-hydroxyphenyl)-8-fluoro-2-((tetrahydro-1H-pyrrolizin-7a(5H)-yl)methoxy)pyrido[4,3-d]pyrimidin-4-yl)-1,6-diazaspiro[3.5]nonan-2-one]
4 | ≤ 2 | 3 |  | ≥ 10000 | ≥ 10000 |  |  |  | Cc1cc2[nH]ncc2c(-c2ncc3c(N4CCCC5(CNS(=O)(=O)N5)C4)nc(OCC45CCCN4CCC5)nc3c2F)c1C (centres unmarked) [Example 521, 7-(7-(5,6-dimethyl-1H-indazol-4-yl)-8-fluoro-2-((hexahydro-1H-pyrrolizin-7a-yl)methoxy)pyrido[4,3-d]pyrimidin-4-yl)-2-thia-1,3,7-triazaspiro[4.5]decane 2,2-dioxide]
292 | 390 | 759 |  | ≥ 10000 | ≥ 10000 |  |  |  | Cc1cc2[nH]ncc2c(-c2ncc3c(N4CCOCC(C)(O)C4)nc(OCC45CCCN4CCC5)nc3c2F)c1C (centres unmarked) [Example 522, 4-(7-(5,6-dimethyl-1H-indazol-4-yl)-8-fluoro-2-((hexahydro-1H-pyrrolizin-7a-yl)methoxy)pyrido[4,3-d]pyrimidin-4-yl)-6-methyl-1,4-oxazepan-6-ol]
166 | 129 | 217 |  | ≥ 10000 | ≥ 10000 |  |  |  | Cc1cc2[nH]ncc2c(-c2ncc3c(N4CCCC5(CC(=O)N5)C4)nc(OCC45CCCN4CCC5)nc3c2F)c1C (centres unmarked) [Example 523, 6-(7-(5,6-dimethyl-1H-indazol-4-yl)-8-fluoro-2-((hexahydro-1H-pyrrolizin-7a-yl)methoxy)pyrido[4,3-d]pyrimidin-4-yl)-1,6-diazaspiro[3.5]nonan-2-one]

Second part, the compound before the results:

SMILES | IC50 (KRas G12D) [nM] | IC50 (KRas G12V) [nM] | IC50 (KRas G12R) [nM] | IC50 (KRas G12C) [nM] | IC50 (pERK in ASPC1 cells) [nM] | IC50 (pERK in H727 cells) [nM] | IC50 (KRas G12A) [nM] | IC50 (KRas G12S) [nM] | IC50 (KRas WT) [nM]
CCc1c(F)ccc2cc(O)cc(-c3ncc4c(N(C)CC5CC(=O)N5)nc(OC[C@@]56CCCN5C[C@H](F)C6)nc4c3F)c12 (some centres unmarked) [Example 384] | 38 | 12 | 32 |  | ≥ 10000 | ≥ 10000 |  |  | 
Fc1c(-c2cccc3cccc(Cl)c23)ncc2c(NCCCOC(F)F)nc(OCC34CCCN3CCC4)nc12 [Example 474, 7-(8-chloronaphthalen-1-yl)-N-(3-(difluoromethoxy)propyl)-8-fluoro-2-((tetrahydro-1H-pyrrolizin-7a(5H)-yl)methoxy)pyrido[4,3-d]pyrimidin-4-amine] | 8600 | 1750 | 3630 | 2390 |  |  | 2950 | 3450 | 6170
NC(=O)C(O)CNc1nc(OCC23CCCN2CCC3)nc2c(F)c(-c3cccc4cccc(Cl)c34)ncc12 (centres unmarked) [Example 475, 3-((7-(8-chloronaphthalen-1-yl)-8-fluoro-2-((tetrahydro-1H-pyrrolizin-7a(5H)-yl)methoxy)pyrido[4,3-d]pyrimidin-4-yl)amino)-2-hydroxypropanamide] | 8550 | 1460 | 2620 | 2750 |  |  | 3680 | 2750 | 4600
CCc1c(F)ccc2cc(O)cc(-c3ncc4c(NCC5CNC5=O)nc(OC[C@@]56CCCN5C[C@H](F)C6)nc4c3F)c12 (stereo partly drawn) [Example 485, 3-(((7-(8-ethyl-7-fluoro-3-hydroxynaphthalen-1-yl)-8-fluoro-2-(((2R,7aS)-2-fluorotetrahydro-1H-pyrrolizin-7a(5H)-yl)methoxy)pyrido[4,3-d]pyrimidin-4-yl)amino)methyl)azetidin-2-one] | 9 | ≤ 2 | 3 |  | 6620 | 1220 |  |  | 
CCc1c(F)ccc2cc(O)cc(-c3ncc4c(N5C[C@H]6C[C@@H](C5)[C@H](CO)[C@H]6O)nc(OC[C@@]56CCCN5C[C@H](F)C6)nc4c3F)c12 [Example 486, (1 R,5R,6S,7R)-3-(7-(8-ethyl-7-fluoro-3-hydroxynaphthalen-1-yl)-8-fluoro-2-(((2R,7aS)-2-fluorohexahydro-1H-pyrrolizin-7a-yl)methoxy)pyrido[4,3-d]pyrimidin-4-yl)-7-(hydroxymethyl)-3-azabicyclo[3.2.1]octan-6-ol] | 336 | 170 | 186 |  | ≥ 10000 | ≥ 10000 |  |  | 
CCc1c(F)ccc2cc(O)cc(-c3ncc4c(N5CCC6C(=O)NC(=O)C6C5)nc(OC[C@@]56CCCN5C[C@H](F)C6)nc4c3F)c12 (stereo partly drawn) [Example 487, 5-(7-(8-ethyl-7-fluoro-3-hydroxynaphthalen-1-yl)-8-fluoro-2-(((2R,7aS)-2-fluorohexahydro-1H-pyrrolizin-7a-yl)methoxy)pyrido[4,3-d]pyrimidin-4-yl)hexahydro-1H-pyrrolo[3,4-c]pyridine-1,3(2H)-dione] | 14 | 5 | 6 |  | ≥ 10000 | 4990 |  |  | 
CCc1c(F)ccc2cc(O)cc(-c3ncc4c(N(C)CC5CNS(=O)(=O)N5)nc(OC[C@@]56CCCN5C[C@H](F)C6)nc4c3F)c12 (some centres unmarked) [Example 495] | 8 | ≤ 2 | 7 |  | 1350 | 1820 |  |  | 
CCc1c(F)ccc2cc(O)cc(-c3ncc4c(N5CCCC6(CCS(=N)(=O)C6)C5)nc(OC[C@@]56CCCN5C[C@H](F)C6)nc4c3F)c12 (stereo partly drawn) [Example 508, 7-(7-(8-ethyl-7-fluoro-3-hydroxynaphthalen-1-yl)-8-fluoro-2-(((2R,7aS)-2-fluorohexahydro-1H-pyrrolizin-7a-yl)methoxy)pyrido[4,3-d]pyrimidin-4-yl)-2-imino-2-thia-7-azaspiro[4.5]decane 2-oxide] | 5 | 12 | 14 |  | 1550 | 2190 |  |  | 
O=S1(=O)NC[C@@]2(CCCN(c3nc(OC[C@@]45CCCN4C[C@H](F)C5)nc4c(F)c(-c5cc(O)cc6ccc(F)c(Cl)c56)ncc34)C2)N1 [Example 516, (S)-7-(7-(8-chloro-7-fluoro-3-hydroxynaphthalen-1-yl)-8-fluoro-2-(((2R,7aS)-2-fluorotetrahydro-1H-pyrrolizin-7a(5H)-yl)methoxy)pyrido[4,3-d]pyrimidin-4-yl)-2-thia-1,3,7-triazaspiro [4.5]decane2,2-dioxide] |  |  |  |  | 9320 | 5690 |  |  | 
O=C1NC(=O)C2CN(c3nc(OCC45CCCN4CCC5)nc4c(F)c(-c5cc(O)cc(Cl)c5C5CC5)ncc34)CC12 (centres unmarked) [Example 519, 5-(7-(3-chloro-2-cyclopropyl-5-hydroxyphenyl)-8-fluoro-2-((tetrahydro-1H-pyrrolizin-7a(5H)-yl)methoxy)pyrido[4,3-d]pyrimidin-4-yl)tetrahydropyrrolo[3,4-c]pyrrole-1,3(2H,3aH)-dione] | ≤ 2 | ≤ 2 | ≤ 2 |  | ≥ 10000 | ≥ 10000 |  |  | 
Cc1cc2[nH]ncc2c(-c2ncc3c(N4CCC[C@@](C)(O)C4)nc(OCC4(CN(C)C)CC4)nc3c2F)c1C [Example 520, (3R)-1-(7-(5,6-dimethyl-1H-indazol-4-yl)-2-((1-((dimethylamino)methyl)cyclopropyl)methoxy)-8-fluoropyrido[4,3-d]pyrimidin-4-yl)-3-methylpiperidin-3-ol] | 692 | 614 | 1750 |  | ≥ 10000 | ≥ 10000 |  |  | 

From patent US12398154B2, “Azaquinazoline pan-KRas inhibitors” (Mirati Therapeutics, Inc., priority 2020, dated 2025)
